{
  "source": "the NIST ThermoML archive (doi:10.1016/j.jct.2014.03.009)",
  "details": "298 K; 101.33 kPa; Crystal; X-ray diffraction",
  "note": "Numbers after ± are expanded uncertainties.",
  "data": [
    {"smiles": "O.O.O.O.O=C([O-])[C@H](O)[C@@H](O)[C@H](O)[C@H](O)CO.O=C([O-])[C@H](O)[C@@H](O)[C@H](O)[C@H](O)CO.[Mn+2]", "note": "[manganese(II) D-gluconate tetrahydrate]", "values": [
      {"measurement": "mass density", "value": "1713 ± 8", "unit": "kg/m3"}
    ]}
  ]
}
